From PubChem BioAssay (NCI)
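Each compound was tested at five concentrations against cells in 96-well plates for 48 hours. TGI: total growth inhibition.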

Experiments:
Experiment in all cases: NCI-60 cell line screen, 48 h
HOP-62 NSCLC = system: HOP-62 NSCLC
HL-60(TB) leukemia = system: HL-60(TB) leukemia
NCI-H226 lung = system: NCI-H226 lung
SK-MEL-2 melanoma = system: SK-MEL-2 melanoma
RPMI-8226 leukemia = system: RPMI-8226 leukemia
UACC-257 melanoma = system: UACC-257 melanoma
T-47D breast = system: T-47D breast
MDA-MB-231 breast = system: MDA-MB-231 breast
SNB-19 CNS = system: SNB-19 CNS
BT-549 breast = system: BT-549 breast
HCT-116 colon = system: HCT-116 colon
KM12 colon = system: KM12 colon
NCI-H460 lung = system: NCI-H460 lung
NCI-H522 lung = system: NCI-H522 lung
A549 NSCLC = system: A549 NSCLC
SF-539 CNS = system: SF-539 CNS
OVCAR-5 ovarian = system: OVCAR-5 ovarian
MOLT-4 leukemia = system: MOLT-4 leukemia
MDA-MB-435 = system: MDA-MB-435
SR leukemia = system: SR leukemia
MCF7 breast = system: MCF7 breast
SF-268 CNS = system: SF-268 CNS
SW-620 colon = system: SW-620 colon
MALME-3M melanoma = system: MALME-3M melanoma
HS 578T breast = system: HS 578T breast
LOX IMVI melanoma = system: LOX IMVI melanoma
SK-OV-3 ovarian = system: SK-OV-3 ovarian
SF-295 CNS = system: SF-295 CNS
NCI/ADR-RES ovarian = system: NCI/ADR-RES ovarian
SK-MEL-5 melanoma = system: SK-MEL-5 melanoma
U251 CNS = system: U251 CNS
SK-MEL-28 melanoma = system: SK-MEL-28 melanoma
A498 renal = system: A498 renal
SN12C renal = system: SN12C renal
UO-31 renal = system: UO-31 renal
DU-145 prostate = system: DU-145 prostate
786-0 renal = system: 786-0 renal
PC-3 prostate = system: PC-3 prostate
CCRF-CEM leukemia = system: CCRF-CEM leukemia
COLO 205 colon = system: COLO 205 colon
OVCAR-3 ovarian = system: OVCAR-3 ovarian
NCI-H23 lung = system: NCI-H23 lung
TK-10 renal = system: TK-10 renal
UACC-62 melanoma = system: UACC-62 melanoma
IGROV1 ovarian = system: IGROV1 ovarian
HT29 colon = system: HT29 colon
EKVX NSCLC = system: EKVX NSCLC
HCC-2998 colon = system: HCC-2998 colon
M14 melanoma = system: M14 melanoma
OVCAR-8 ovarian = system: OVCAR-8 ovarian
K-562 leukemia = system: K-562 leukemia
SNB-75 CNS = system: SNB-75 CNS
MDA-N = system: MDA-N
ACHN renal = system: ACHN renal
CAKI-1 renal = system: CAKI-1 renal
OVCAR-4 ovarian = system: OVCAR-4 ovarian
HCT-15 colon = system: HCT-15 colon
HOP-92 NSCLC = system: HOP-92 NSCLC
RXF 393 renal = system: RXF 393 renal

Measured: TGI

COc1ccc(OC2OC(CO)C(OCc3ccccc3)C(OCc3ccccc3)C2OCc2ccccc2)cc1 (centres undefined)
72.9 µM: MOLT-4 leukemia
not listed: OVCAR-4 ovarian | HCT-15 colon | HOP-92 NSCLC | RXF 393 renal
> 100 µM: all other assays above

CN(C)CC1CCC/C(=C\c2ccc(OC(=O)c3ccc(Cl)cc3)cc2)C1=O (centres undefined)
8.44 µM: ACHN renal
9.07 µM: SF-268 CNS
17.5 µM: NCI-H460 lung
1.99 µM: RPMI-8226 leukemia
18.4 µM: PC-3 prostate
3.08 µM: U251 CNS
10.3 µM: HS 578T breast
6.79 µM: DU-145 prostate
3.19 µM: MOLT-4 leukemia
4.84 µM: SN12C renal
10.6 µM: SK-MEL-2 melanoma
8.94 µM: OVCAR-4 ovarian
> 100 µM: SR leukemia
5.9 µM: KM12 colon
3.23 µM: OVCAR-8 ovarian
11.9 µM: HL-60(TB) leukemia
9.84 µM: SF-295 CNS
7.55 µM: BT-549 breast
2.71 µM: SW-620 colon
4.1 µM: HT29 colon
5.19 µM: TK-10 renal
9.16 µM: SNB-75 CNS
4.81 µM: COLO 205 colon
3.27 µM: M14 melanoma
1.58 µM: MCF7 breast
13.4 µM: UACC-62 melanoma
8.27 µM: IGROV1 ovarian
7.26 µM: A549 NSCLC
4.75 µM: HOP-92 NSCLC
5.95 µM: OVCAR-5 ovarian
3.5 µM: NCI-H23 lung
6.16 µM: EKVX NSCLC
22.6 µM: A498 renal
2.97 µM: UO-31 renal
3.3 µM: HCT-15 colon
1.98 µM: LOX IMVI melanoma
8.52 µM: SK-MEL-28 melanoma
3.8 µM: K-562 leukemia
34.6 µM: SK-OV-3 ovarian
3.36 µM: OVCAR-3 ovarian
5.73 µM: MDA-MB-231 breast
12.1 µM: SK-MEL-5 melanoma
12.6 µM: HOP-62 NSCLC
7.45 µM: MDA-N
4.01 µM: MDA-MB-435
4.99 µM: NCI/ADR-RES ovarian
2.23 µM: HCT-116 colon
9.77 µM: NCI-H226 lung
5.41 µM: SF-539 CNS
13.7 µM: SNB-19 CNS
> 29 µM: HCC-2998 colon
16.7 µM: UACC-257 melanoma
5.13 µM: CAKI-1 renal
2.3 µM: 786-0 renal
6.8 µM: MALME-3M melanoma
2.21 µM: T-47D breast

c1cncc(CC2(c3cc4ccccc4[nH]3)OCCO2)c1
not listed: HOP-62 NSCLC | RPMI-8226 leukemia | OVCAR-5 ovarian | MOLT-4 leukemia | OVCAR-3 ovarian | EKVX NSCLC | M14 melanoma | K-562 leukemia | RXF 393 renal
> 100 µM: all other assays above

CN(C)c1ccc(/C=C(\NC(=O)c2ccccc2)c2nn(C)c(=O)o2)cc1
65.6 µM: NCI/ADR-RES ovarian
93.8 µM: NCI-H226 lung
38.1 µM: HOP-62 NSCLC
80 µM: SNB-19 CNS
47 µM: NCI-H522 lung
93.5 µM: SK-MEL-5 melanoma
46.8 µM: SNB-75 CNS
82.9 µM: OVCAR-8 ovarian
54.3 µM: U251 CNS
97.7 µM: OVCAR-4 ovarian
not listed: SR leukemia
> 100 µM: all other assays above
